# Results: US20250000841A1, “Administration of Resiniferatoxin For Treatment of Prostate Cancer” (Sorrento Therapeutics, Inc., priority 2021, published 2025)
# Key:
# [1] = system: human DU145 prostate carcinoma cells engrafted s.c.; experiment: mouse xenograft tumor model, tumor volume over time; type: in vivo; conditions: 0.1, 0.5 and 1 μg/dose, local (peritumoral) every other day from day 28 after engraftment, FIG. 3A
# Procedure: (§1) FIGS. 3A, 3B and 3C show RTX inhibits prostate carcinoma progression in a cytostatic manner. […] RTX was administered locally (peritumorally) every other day at the indicated dose starting at 28 days after engraftment. The cytostatic activity appeared to be dose-independent in the tested range of 0.1-1 μg/dose. […] Scale, 100 μm. CD31+ blood vessel length and cleaved caspase 3 levels (expressed as median fluorescence intensity, MFI) are quantified in FIG. 3C.
# [2] = system: human DU145 prostate carcinoma xenograft tumor tissue; experiment: H&E staining and immunofluorescence of dissected xenograft tumor tissues; type: in vivo, mouse; conditions: immunofluorescence of tumor tissue, FIG. 3C
# Procedure: as §1
# Dissected tumor tissues were assessed by H&E staining and by immunofluorescence for CD31 (tumor vessel marker), DRAQ7 (nuclear marker), and cleaved caspase 3 (apoptotic cell maker). […] (FIG. 3B, upper row). […] (FIG. 3B, middle row).
# [3] = system: tumor associated inflammatory cytokines (IL-6, IFNγ); experiment: cytokine array of xenograft tumor tissue homogenates; type: in vivo, mouse
# Excerpt: Reduced IL-6 expression in a dose-dependent manner is shown magnified (FIG. 4A).
# Some studies of RTX have reported a potential to induce neurologic inflammatory responses. […] Tumor tissue homogenate samples from mouse xenograft tumor models described in Example B were taken at necroptic endpoint and analyzed for tumor associated inflammatory cytokine levels using a cytokine array (FIG. 4A).
# [4] = system: human prostate cancer cell line LNCaP; experiment: proliferation assay, prostate cancer cell line LNCaP; type: cell-based; conditions: LNCaP cells cultured with varying amounts of RTX, FIG. 2C
# Excerpt: (§2) Proliferation measurements were normalized to an untreated control.
# [5] = system: human prostate cancer cell line DU145; experiment: proliferation assay, prostate cancer cell line DU145; type: cell-based; conditions: DU145 cells cultured with varying amounts of RTX, FIG. 2C
# Excerpt: as §2
structure (smiles),measurement,setting,value
"C=C(C)[C@]12C[C@@H](C)[C@@]34O[C@](Cc5ccccc5)(O[C@@H]1[C@@H]3C=C(COC(=O)Cc1ccc(O)c(OC)c1)C[C@]1(O)C(=O)C(C)=C[C@@H]41)O2 [RTX, Resiniferatoxin]",cytostatic efficacy (tumor volume),[1],potent cytostatic efficacy in a dose-independent manner
same,tumor cell apoptosis (cleaved caspase 3 staining),[2]; FIG. 3B lower row,tumor cell apoptosis increased
same,CD31+ tumor vasculature,[2]; FIG. 3B middle row,decreased contiguous CD31+ stained structures
same,Cytokine Release Syndrome (inflammatory cytokine expression),"[3]; tumor homogenates taken at necroptic endpoint, FIG. 4A",no indication of Cytokine Release Syndrome (CRS)
same,IFNγ expression,"[3]; tumor homogenates, cytokine array",did not induce elevated expression of IFNγ
same,IL-6 expression,"[3]; tumor homogenates, higher RTX doses, FIG. 4A-C",reduced expression
same,proliferation (normalized to untreated control),[4],dose-dependent decreases in proliferation
same,proliferation (normalized to untreated control),[5],dose-dependent decreases in proliferation
